These results are taken from patent publication US11952554B2, “Alkyl polyglycoside-containing cleaning formulations for chemically sensitive individuals” (Living Clean NZ, Ltd., priority 2021, dated 2024).

For data set [1], the system named is chemically sensitive individuals (MCS). Also on record: species or system human. As to conditions: in vivo. How it is done:
Once candidate ingredients are identified and tested as described above, they are evaluated for use in potential cleaning formulations using a blind study protocol. The blind studies used in the course of the instant work were comprised of a specially selected panel of volunteers. […] A panel comprised of just such individuals was used for many aspects of the studies conducted herein. […] See E. A. Krusemark and W. Li, “Enhanced olfactory sensory perception of threat in anxiety: An event-related fMRI study,” Chemosensory Perception, 5 (2012) 37-45; the article in its entirely is herein incorporated by reference.
In the course of the instant work, at least one individual with MCS was used to rank prospective ingredients for acceptability in cleaning formulations based upon sensory responses, which included olfactory as well as skin contact. Instrumental analyses were then implemented to correlate results with sensory ratings from the human panel, and to identify and/or quantify the chemicals detected and deemed to be potentially harmful to humans. Ingredients that were deemed acceptable by the human panel and the instrumental analyses were then used as raw materials for cleaning products described herein. It is believed that this level of pre-screening and testing represents a first in the world for consumer cleaning product formulations work, and has provided an unprecedented level of safety testing for consumer products. Accordingly, in one aspect of the technology newly presented and described herein, a method for providing cleaning formulations for use by the general public and chemically-sensitized individuals, in particular, involves:
Without being bound by theory, it is believed that this phenomenon is due to the non-exact nature of the BCI or RCI measurement (±3% by weight) vis-à-vis the low amounts of contaminants, perhaps much less than 1% by weight, that are present in certain ingredients. To test this hypothesis, a number of chemically sensitive individuals assessed four types of alkyl polyglucosides, or APGs, from three manufacturers, all of which have an apparent BCI/RCI of 100%. Each of the APG candidates was rated on a 3-point index: Acceptable, Marginal, and Unacceptable. The Marginal and Unacceptable candidates were then analyzed for the presence of trace contaminants.
In the manufacture of surfactants, it can be assumed that a small amount, albeit a significant one, of feedstock remains unreacted. This amount can often be less than 1% by weight, but to individuals who are sensitive to such species, the impact can be significant. […] As such, a number of raw materials were evaluated by a number of chemically sensitive individuals for acceptability using the same scale as above.

The conditions of data set [2]: cited from earlier work.

Consider `CCCCCCCCOS(=O)(=O)[O-].[Na+]` [Sodium octyl sulfate (from bio-basis), Sodium octyl sulfate], for which the “Acceptability Rating” value in data set [1] is reported as “Unacceptable”.

For the compound `ClC(Cl)Cl` [Trichloromethane (chloroform), Trichloromethane], in data set [2] (Clean Air Act-Hazardous Air Pollutant), the CAA-HAP listing entry is listed as “✓”. Further, the CAA-TFS listing result in data set [2] (Clean Air Act-Toxic and Flammable Substances for Accidental Release Prevention) was “✓”. The CWA listing entry in data set [2] (Clean Water Act-Priority Pollutant) is reported as “✓”. Besides, the CERCLA listing entry in data set [2] (Comprehensive Environmental Response, Compensation, and Liability Act-Hazardous Substance) is “✓”. For the same compound, the EPCRA listing entry in data set [2] (Emergency Planning & Community Right to Know Act-Toxic Release Inventory Chemical) was “✓”. For the same compound, the OSHA listing entry in data set [2] (Occupational Safety and Health Act-Air Contaminants) is recorded as “✓”. Besides, in data set [2] (Resource Conservation and Recovery Act-Hazardous Constituents), the RCRA listing result is recorded as “✓”.

For C8-10 alkyl polyglucoside, the “Acceptability Rating” value in data set [1] was “Unacceptable”.

As for C10-16 alkyl polyglucoside, the “Acceptability Rating” value in data set [1] is recorded as “Acceptable-”.

For Sodium coco sulfate, the “Acceptability Rating” value in data set [1] is “Acceptable”.
